Measured values taken from patent US20130023574A1, “METHOD FOR GENERATING DATA SET FOR INTEGRATED PROTEOMICS, INTEGRATED PROTEOMICS METHOD USING DATA SET FOR INTEGRATED PROTEOMICS THAT IS GENERATED BY THE GENERATION METHOD, AND METHOD FOR IDENTIFYING CAUSATIVE SUBSTANCE USING SAME” (National University Corporation Kumamoto University, priority 2010, published 2013).

Tests used:
U373 cells = test: Chemoresistance to TMZ (rate of living cells, absorbance) in glioma cell line U373; type: cell-based, human
Protocol: The experiment was carried out by inoculating the glioma cell line on a 96-well plate at the rate of 100 cells per well and adding TMZ at varying concentration ranging from 0 to 20 μM to each well after 5 hours of inoculation. After the plate was incubated for 6 days, absorbance at 450 nm was measured […]. The rate of living cells was expressed by percentage (%) at the defined concentrations of TMZ by setting the concentration rate of 0 μM as a control and as a standard rate of the living cells at the respective TMZ concentrations. […] In other words, it was found in the glioma cell line that the chemoresistance was increased to a higher extent as the variation expression amounts of vimentin were higher.
This experiment was implemented by inoculating a 6-well plate with glioma cells at the rate of 10^6 cells per well, followed by introduction of a vimentin siRNA or a control siRNA into the cells using lipofectamin 2000 after 24 hours of inoculation. […] After the plate was incubated for 6 days, absorbance at 450 nm was measured […]. […]
This experiment was implemented to investigate an influence of the PAK1-induced vimentin phosphorylation on the sensitivity to anticancer agents in the glioma cell line. […] After incubation for 6 days, the portion having absorbance at 420 nm was measured […]. The rate of living cells was expressed by percentage (%) at every set TMZ concentration by setting the TMZ concentration of 0 μM and absorbance for the stimulation with the PAK inhibitor as a standard living cell rate for the respective TMZ concentrations. […]
This experiment was carried out by inoculating a 96-well plate with the glioma cell line at the rate of 100 cells per well, followed by stimulation with 1 μM of Calpi or 1 μM of A23187 after 5 hours of inoculation and addition of TMZ at concentrations varying from 0 μM to 40 μM. After the glioma cell line was incubated for 6 days, the portion having absorbance at 420 nm was measured. […]

calpain = test: Fragmentation of vimentin in glioma cell line U373 by Western blotting; type: cell-based, human
Excerpt: In this experiment, calpain was activated A23187 (a calcium ionophor). After the glioma cell line U373 was stimulated with the calpain inhibitor and then confirmed by Western blotting. […] Therefore, it was confirmed that vimentin is cleaved with calpain.
It is known that, although the N-terminal serine residue of group A can be acetylated, the N-terminal amino acid sequence of the vimentin fragments of groups B, C and D, respectively, can be cleaved by calpain (FIGS. 41d, 45). Therefore, in order to confirm the phosphorylation of vimentin and the cleavage of the N-terminal vimentin with PAK1 and calpain, respectively, a pattern of the vimentin spots with GFP-vimentin (1-464.aa full length) overexpressed in the U373 glioma cell line was analyzed by 2D Western blotting using an anti-C-terminal vimentin antibody. […] Further, the particular fragmentation of vimentin was suppressed with the calpain inhibitor (FIG. 27).

| SMILES | medicine resistance of the U373 glioma cells (U373 cells; FIG. 33, stimulation plus TMZ) | sensitivity to anticancer agents (rate of living cells) (U373 cells; glioma cell line, 3 μg/ml ephrin A1 or 30 μM serotonin, TMZ 5, 10, 20 and 40 μM, 6 days, vs control) | resistance to anticancer agents (rate of living cells) (U373 cells; U373 cells, 1 μM A23187, TMZ 20 and 40 μM, 6 days, vs control) | fragmentation of vimentin (calpain) |
| --- | --- | --- | --- | --- |
| NCCc1c[nH]c2ccc(O)cc12 [serotonin] | upregulated the medicine resistance | upregulated | – | – |
| CNc1ccc2oc(C[C@H]3O[C@@]4(CC[C@H]3C)O[C@H]([C@H](C)C(=O)c3ccc[nH]3)[C@H](C)C[C@H]4C)nc2c1C(=O)O [A23187] | – | – | upregulated the resistance to anticancer agents significantly | enhanced the fragmentation |
